Laboratory results taken from the supplement of paper PMC10307832.

Key:
Test in all cases: relative viability (nuclei count vs DMSO), 5 days (fraction); higher = more cells survive
[1] = test system: BEN
Procedure, shortened: (§1)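 Cells from lung cancer lines were seeded into 1536-well plates and, one day later, dosed by pin tool. Treatments were either a single drug or a fixed dose of an anchor drug with five library-drug doses (not always all listed) in √10 steps. After 5 days, nuclei were stained in a one-step fixation (final 0.05% Triton X-100, 1% formaldehyde, 1 ug/ml Hoechst) and counted on 4× images, and relative viability is the treated-to-vehicle nuclei ratio, as the median of duplicate plates.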

[2] = test system: CAL-12T
Procedure, shortened: as §1

[3] = test system: COR-L23
Procedure, shortened: as §1

[4] = test system: LU99A
Procedure, shortened: as §1

[5] = test system: LXF-289
Procedure, shortened: as §1

[6] = test system: NCI-H1355
Procedure, shortened: as §1

[7] = test system: NCI-H1437
Procedure, shortened: as §1

[8] = test system: NCI-H1563
Procedure, shortened: as §1

[9] = test system: NCI-H1650
Procedure, shortened: as §1

[10] = test system: NCI-H1651
Procedure, shortened: as §1

[11] = test system: NCI-H1666
Procedure, shortened: as §1

[12] = test system: NCI-H1755
Procedure, shortened: as §1

[13] = test system: NCI-H1792
Procedure, shortened: as §1

[14] = test system: NCI-H1993
Procedure, shortened: as §1

[15] = test system: NCI-H2085
Procedure, shortened: as §1

[16] = test system: NCI-H2087
Procedure, shortened: as §1

[17] = test system: NCI-H2170
Procedure, shortened: as §1

[18] = test system: NCI-H460
Procedure, shortened: as §1

[19] = test system: NCI-H520
Procedure, shortened: as §1

[20] = test system: PC-14
Procedure, shortened: as §1

[21] = test system: SK-MES-1
Procedure, shortened: as §1

CCNC(=O)c1noc(-c2cc(C(C)C)c(O)cc2O)c1-c1ccc(CN2CCOCC2)cc1 [Luminespib] + Cc1nc(Nc2ncc(C(=O)Nc3c(C)cccc3Cl)s2)cc(N2CCN(CCO)CC2)n1 [Dasatinib] (partner 0.075 µM)
relative viability ([1]; first compound 0.002 µM): 0.323 | relative viability ([1]; first compound 0.006325 µM): 0.303 | relative viability ([1]; first compound 0.02 µM): 0.263 | relative viability ([1]; first compound 0.06325 µM): 0.334 | relative viability ([1]; first compound 0.2 µM): 0.192 | relative viability ([2]; first compound 0.002 µM): 0.519 | relative viability ([2]; first compound 0.006325 µM): 0.485 | relative viability ([2]; first compound 0.02 µM): 0.147 | relative viability ([2]; first compound 0.06325 µM): 0.0553 | relative viability ([2]; first compound 0.2 µM): 0.0762 | relative viability ([3]; first compound 0.002 µM): 0.6 | relative viability ([3]; first compound 0.006325 µM): 0.363 | relative viability ([3]; first compound 0.02 µM): 0.433 | relative viability ([3]; first compound 0.06325 µM): 0.0438 | relative viability ([3]; first compound 0.2 µM): 0.0462 | relative viability ([4]; first compound 0.002 µM): 0.658 | relative viability ([4]; first compound 0.006325 µM): 0.406 | relative viability ([4]; first compound 0.02 µM): 0.377 | relative viability ([4]; first compound 0.06325 µM): 0.0593 | relative viability ([4]; first compound 0.2 µM): 0.0775 | relative viability ([5]; first compound 0.002 µM): 0.271 | relative viability ([5]; first compound 0.006325 µM): 0.238 | relative viability ([5]; first compound 0.02 µM): 0.187 | relative viability ([5]; first compound 0.06325 µM): 0.0634 | relative viability ([5]; first compound 0.2 µM): 0.0395 | relative viability ([6]; first compound 0.002 µM): 0.678 | relative viability ([6]; first compound 0.006325 µM): 0.656 | relative viability ([6]; first compound 0.02 µM): 0.473 | relative viability ([6]; first compound 0.06325 µM): 0.414 | relative viability ([6]; first compound 0.2 µM): 0.153 | relative viability ([7]; first compound 0.002 µM): 0.421 | relative viability ([7]; first compound 0.006325 µM): 0.316 | relative viability ([7]; first compound 0.02 µM): 0.255 | relative viability ([7]; first compound 0.06325 µM): 0.252 | relative viability ([7]; first compound 0.2 µM): 0.126 | relative viability ([8]; first compound 0.002 µM): 0.453 | relative viability ([8]; first compound 0.006325 µM): 0.476 | relative viability ([8]; first compound 0.02 µM): 0.394 | relative viability ([8]; first compound 0.06325 µM): 0.353 | relative viability ([8]; first compound 0.2 µM): 0.341 | relative viability ([9]; first compound 0.002 µM): 0.326 | relative viability ([9]; first compound 0.006325 µM): 0.252 | relative viability ([9]; first compound 0.02 µM): 0.162 | relative viability ([9]; first compound 0.06325 µM): 0.192 | relative viability ([9]; first compound 0.2 µM): 0.168 | relative viability ([10]; first compound 0.002 µM): 0.352 | relative viability ([10]; first compound 0.006325 µM): 0.433 | relative viability ([10]; first compound 0.02 µM): 0.331 | relative viability ([10]; first compound 0.06325 µM): 0.132 | relative viability ([10]; first compound 0.2 µM): 0.107 | relative viability ([11]; first compound 0.002 µM): 0.873 | relative viability ([11]; first compound 0.006325 µM): 0.711 | relative viability ([11]; first compound 0.02 µM): 0.904 | relative viability ([11]; first compound 0.06325 µM): 0.85 | relative viability ([11]; first compound 0.2 µM): 0.748 | relative viability ([12]; first compound 0.002 µM): 0.394 | relative viability ([12]; first compound 0.006325 µM): 0.472 | relative viability ([12]; first compound 0.02 µM): 0.455 | relative viability ([12]; first compound 0.06325 µM): 0.258 | relative viability ([12]; first compound 0.2 µM): 0.119 | relative viability ([13]; first compound 0.002 µM): 0.737 | relative viability ([13]; first compound 0.006325 µM): 0.619 | relative viability ([13]; first compound 0.02 µM): 0.722 | relative viability ([13]; first compound 0.06325 µM): 0.361 | relative viability ([13]; first compound 0.2 µM): 0.242 | relative viability ([14]; first compound 0.002 µM): 0.633 | relative viability ([14]; first compound 0.006325 µM): 0.534 | relative viability ([14]; first compound 0.02 µM): 0.431 | relative viability ([14]; first compound 0.06325 µM): 0.331 | relative viability ([14]; first compound 0.2 µM): 0.353 | relative viability ([15]; first compound 0.002 µM): 0.219 | relative viability ([15]; first compound 0.006325 µM): 0.254 | relative viability ([15]; first compound 0.02 µM): 0.207 | relative viability ([15]; first compound 0.06325 µM): 0.277 | relative viability ([15]; first compound 0.2 µM): 0.266 | relative viability ([16]; first compound 0.002 µM): 0.757 | relative viability ([16]; first compound 0.006325 µM): 0.441 | relative viability ([16]; first compound 0.02 µM): 0.317 | relative viability ([16]; first compound 0.06325 µM): 0.102 | relative viability ([16]; first compound 0.2 µM): 0.086 | relative viability ([17]; first compound 0.002 µM): 0.503 | relative viability ([17]; first compound 0.006325 µM): 0.578 | relative viability ([17]; first compound 0.02 µM): 0.308 | relative viability ([17]; first compound 0.06325 µM): 0.163 | relative viability ([17]; first compound 0.2 µM): 0.106 | relative viability ([18]; first compound 0.002 µM): 0.462 | relative viability ([18]; first compound 0.006325 µM): 0.481 | relative viability ([18]; first compound 0.02 µM): 0.251 | relative viability ([18]; first compound 0.06325 µM): 0.0185 | relative viability ([18]; first compound 0.2 µM): 0.0168 | relative viability ([19]; first compound 0.002 µM): 0.17 | relative viability ([19]; first compound 0.006325 µM): 0.209 | relative viability ([19]; first compound 0.02 µM): 0.198 | relative viability ([19]; first compound 0.06325 µM): 0.151 | relative viability ([19]; first compound 0.2 µM): 0.173 | relative viability ([20]; first compound 0.002 µM): 0.253 | relative viability ([20]; first compound 0.006325 µM): 0.272 | relative viability ([20]; first compound 0.02 µM): 0.0443 | relative viability ([20]; first compound 0.06325 µM): 0.0382 | relative viability ([20]; first compound 0.2 µM): 0.0374 | relative viability ([21]; first compound 0.002 µM): 0.333 | relative viability ([21]; first compound 0.006325 µM): 0.376 | relative viability ([21]; first compound 0.02 µM): 0.217 | relative viability ([21]; first compound 0.06325 µM): 0.0911 | relative viability ([21]; first compound 0.2 µM): 0.0956
